≈ marks a conversion by molar mass, not a printed value. Like-named read-outs stand apart in the source and are kept apart here.
Experiments:
[1] = test system: isolates from peptidomimetic 1-exposed E. coli ATCC 25922 lineages; conditions: for MIC in MHB: standard MHB media
Experimental: (§1) Continuous selection of resistance was performed for peptidomimetic 1 (Figure 1) and for the clinically relevant natural antimicrobial peptide, polymyxin B. A bacterial suspension of a single colony of E. coli ATCC 25922 was re-inoculated (10 µl) five times in unsupplemented MHB (990 µl). It was then re-inoculated in MHB supplemented with peptidomimetic 1 (ten lineages) or polymyxin B (ten lineages), and after ten re-inoculations at constant peptidomimetic or polymyxin B concentration, the concentrations were doubled. […] Four lineages grown in MHB with MilliQ water were included as control. Re-inoculations were performed twice a day, but were reduced to once a day when growth was slower as assessed by turbidity of the cultures. The total number of passages (supplemented with peptidomimetic/AMP) was 77 times equivalent to approx. 500 generations. For each increase in concentration the lineages were preserved as freezing stocks. Ten colony isolates were randomly selected from each lineage population at 32×MIC and preserved as freezing stocks.
MIC was determined by using the micro-dilution method according to guidelines of the Clinical and Laboratory Standards Institute. Peptidomimetic 1 and erythromycin 1∶2 serial dilutions were prepared from 1024 µg/mL stock solutions to give a final range of 512-0.5 µg/mL in the wells. Ampicillin 1∶2 serial dilutions were prepared from a 256 µg/mL stock solution to give a final range of 128-0.13 µg/mL in the wells. Polymyxin B and gentamicin 1∶2 serial dilutions were prepared from a 64 µg/mL stock solution to give a final range of 32-0.03 µg/mL in the wells.
The population lineages were tested for their susceptibility towards peptidomimetic 1, polymyxin B, gentamicin and ampicillin. Single-culture isolates selected from these populations were additionally tested against peptidomimetic 1, polymyxin B, erythromycin and the five reference AMPs. To estimate the level of cross-resistance to closely related peptidomimetics, MIC determinations were performed for peptidomimetics 2 and 3 (Figure 1) towards selected isolates. The bacterial suspensions were grown overnight in MHB at 37°C for determination of the population MIC, or individual isolates were grown overnight on non-selective BHI agar at 37°C. […] In all experiments, bacterial cells were suspended in 0.9% saline to give a turbidity of 0.13 at OD546 (approximately 1×10^8 CFU/mL) and diluted in MHB pH 7.4 to a final concentration of 5×10^5 CFU/mL in each well. Polypropylene plates (Nunc 442587) were used to minimize peptide binding, and the incubation time was 18–20 hours at 37°C. […] MIC was found in a minimum of two technical (population MIC) or biological (isolate MIC) replicates as the lowest concentration of the AMP or antibiotic where no visible growth was observed.

[2] = test system: Escherichia coli ATCC 25922; assay: Continuous selection experiment; type: cell-based
Experimental: as §1

[3] = test system: peptidomimetic-adapted E. coli isolates 2-7 and 7-3; assay: Growth rate in MHB supplemented with peptidomimetic 1, adapted isolates; type: cell-based, Escherichia coli
Experimental: (§2) To evaluate whether resistance altered the physiology of the isolates, we determined the growth rate of all forty isolates from lineage 2, 4, 5 and 7 as well as of E. coli ATCC 25922 in unsupplemented MHB media. Additionally, we determined the growth rate of the four isolates 2-7, 4-4, 5-6 and 7-3, in MHB supplemented with peptidomimetic 1 at ½×wild type MIC or 1×wild type MIC (i.e. 4 and 8 µg/mL). […] Optical density readings were obtained at 570 nm at 10–12 minute increments on cultures grown at 37°C over 24 hours (unsupplemented MHB) or 72 hours (supplemented MHB) using the automated Bioscreen C system (Labsystems, Helsinki, Finland). Growth rates were found using linear regression on ln(initial CFU/mL) vs. detection time (i.e. the time until a 0.5 unit increase in absorbance was reached) for inoculum sizes ranging from 10^2–10^7 CFU/mL [58]. Data were analysed in GraphPad Prism version 4.03 using One-Way ANOVA followed by Dunnett’s Test to correct for multiple testing. Control groups were E. coli ATCC 25922 (in the absence of peptidomimetic) or E. coli ATCC 25922/isolates grown in unsupplemented media (in the presence of peptidomimetic). Significance levels were in all tests set at p<0.05. All experiments were performed in duplicate on at least two independent days.

[4] = test system: E. coli ATCC 25922; assay: Growth rate in MHB supplemented with peptidomimetic 1, wild type; type: cell-based, Escherichia coli; conditions: E. coli ATCC 25922 exposed to 1/16 or 1/32×wt MIC of peptidomimetic 1; p>0.05
Experimental: as §2

CC(=O)N[C@@H](CCCCNC(=N)N)C(=O)N(CCC(=O)N[C@@H](CCCCNC(=N)N)C(=O)N(CCC(=O)N[C@@H](CCCCNC(=N)N)C(=O)N(CCC(=O)N[C@@H](CCCCNC(=N)N)C(=O)N(CCC(=O)N[C@@H](CCCCNC(=N)N)C(=O)N(CCC(=O)N[C@@H](CCCCNC(=N)N)C(=O)N(CCC(N)=O)[C@@H](C)c1ccccc1)[C@@H](C)c1ccccc1)[C@@H](C)c1ccccc1)[C@@H](C)c1ccccc1)[C@@H](C)c1ccccc1)[C@@H](C)c1ccccc1 [peptidomimetic 1]
MIC of individual isolates ([1]; eight out of ten isolates from lineage no. 4): 8 µg/mL | MIC of isolate ([1]; isolate 2–3, first listed of three biological replicates): 8 µg/mL | MIC of isolate ([1]; isolate 2–3, second listed of three biological replicates): 16 µg/mL | MIC of isolate ([1]; isolate 2–3, third listed of three biological replicates): 64 µg/mL | MIC in MHB ([1]; isolate 2–7 (lineage 2)): 64 to 128 µg/mL | MIC of isolate ([1]; isolate 2–8, first listed of three biological replicates): 16 µg/mL | MIC of isolate ([1]; isolate 2–8, second listed of three biological replicates): 64 µg/mL | MIC of isolate ([1]; isolate 2–8, third listed of three biological replicates): 128 µg/mL | MIC in MHB ([1]; isolate 4–4 (lineage 4)): 8 µg/mL (≈ 3.75 µM) | MIC in MHB ([1]; isolate 5–6 (lineage 5)): 32 to 64 µg/mL | MIC in MHB ([1]; isolate 7–3 (lineage 7)): 128 µg/mL (≈ 60 µM) | grouping of genome-sequenced isolates by MIC: high resistance ([1]; isolates 2–4, 2–6, 2–7, 2–9, 2–10, 7–3, 7–4, 7–7, wt MIC value 8 µg/mL): High resistance isolates: 8–16 ×wt MIC | MIC ([1]; isolates 2–4 and 2–6 (shared values), two biological replicates, mean when results varied): 96 µg/mL (≈ 45 µM) | grouping of genome-sequenced isolates by MIC: low resistance ([1]; isolates 4-1, 4-3, 5-6, 5-8, 5-9, wt MIC value 8 µg/mL): Low resistance isolates: 4–8 ×wt MIC | grouping of genome-sequenced isolates by MIC ([1]; isolates 4–4, 4–6, 4–10, 5–2, 5–4, 7–9, 7–10, wt MIC value 8 µg/mL): Isolates with wt MIC | MIC of individual isolates ([1]; seven out of ten isolates from lineage no. 5): 8 µg/mL | MIC lower as compared to that of the lineage population (256 µg/mL) ([1]; the other two isolates from lineage no. 4): 4 fold | MIC of individual isolates, span ([1]; the ten isolates from lineage no. 2, biological replicates): 8 to 128 µg/mL | MIC of individual isolates, span ([1]; the ten isolates from lineage no. 7): 8 to 128 µg/mL | lineages that eventually grew at 32×wt MIC ([2]; ten lineages per agent, from 1/16×wt MIC, doubled stepwise, 77 inoculations, approx. 500 generations, 32×wt MIC = 256 µg/mL peptidomimetic 1, 32 µg/mL polymyxin B): All ten | growth of unexposed control lineages at 4×wt MIC ([2]; two controls per agent, 32 µg/mL peptidomimetic 1 or 4 µg/mL polymyxin B): failed to grow | growth rate ([3]; isolate 2–7, MHB with 4 µg/mL peptidomimetic 1 (1/32×MIC), p<0.01 vs unsupplemented): significantly reduced growth rate | growth rate ([3]; isolate 2–7, MHB with 8 µg/mL peptidomimetic 1 (1/16×isolate MIC), p<0.01 vs unsupplemented, Bioscreen C, 37°C, 72 h): significantly reduced | growth rate ([3]; isolate 7-3, MHB with 8 µg/mL peptidomimetic 1 (1/16×isolate MIC), p<0.05 vs unsupplemented, Bioscreen C, 37°C, 72 h): significantly reduced | growth rate [4]: reduced growth rate was not seen
